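Following 48 hours of exposure in 96-well plates, responses at five concentrations were used to interpolate endpoints linearly. Here, GI50 denotes the concentration required for 50% inhibition of growth.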 Active and inactive are the calls of the source. No stated cut-off is given here; in the data, active = GI50 up to about 1.1 µM and inactive = higher.
Assays:
Test in all cases: DTP human tumour cell line panel, 48 h
[1] = tested on: MCF7
[2] = tested on: SK-MEL-5
[3] = tested on: Malme-3M
[4] = tested on: RPMI-8226
[5] = tested on: KM12
[6] = tested on: BT-549
[7] = tested on: IGROV-1
[8] = tested on: HL-60
[9] = tested on: PC-3
[10] = tested on: OVCAR-3
[11] = tested on: T47D
[12] = tested on: HT-29
[13] = tested on: TK-10
[14] = tested on: ACHN
[15] = tested on: HCC 2998
[16] = tested on: UO-31
[17] = tested on: UACC-257
[18] = tested on: M14
[19] = tested on: OVCAR-4
[20] = tested on: HOP-92

Measured: GI50

COc1ccc(OC2OC(CO)C(O)C(O)C2O)cc1 (stereo not given)
inactive: [1] > 100 µM | [2] > 100 µM | [3] > 100 µM | [4] > 100 µM | [5] > 100 µM | [6] > 100 µM | [7] > 100 µM | [8] > 100 µM | [9] > 100 µM | [10] > 100 µM | [11] > 100 µM | [12] > 100 µM | [13] > 100 µM | [14] > 100 µM | [15] > 100 µM | [16] > 100 µM | [17] > 100 µM | [18] > 100 µM

CCC(CCCN)Nc1cc(OC)cc2c(C)ccnc12 (stereo not given)
inactive: [1] 15 µM | [2] 17.8 µM | [3] 19.6 µM | [19] 17.8 µM | [20] 14 µM | [5] 14.9 µM | [6] 14.9 µM | [7] 16.8 µM | [8] 12.4 µM | [9] 11.6 µM | [10] 15.4 µM | [12] 14.3 µM | [13] 17.7 µM | [14] 18.3 µM | [15] 18.8 µM | [16] 12.9 µM | [17] 17.9 µM | [18] 15.2 µM

C/C(=N\N=C(\N)OB(F)F)c1ccccn1
inactive: [1] 79.4 µM | [2] > 100 µM | [3] > 100 µM | [19] 35 µM | [20] 12.7 µM | [5] > 100 µM | [6] > 100 µM | [7] 64.3 µM | [8] 63.5 µM | [10] 92 µM | [11] > 100 µM | [12] 47.3 µM | [13] 59.7 µM | [14] 81.1 µM | [15] > 100 µM | [16] 71.4 µM | [17] > 100 µM | [18] > 100 µM

O=S(=O)(c1ccccc1)c1ccc(/N=N/O)nc1
inactive: [1] 76 µM | [2] > 10 µM | [3] > 100 µM | [19] > 100 µM | [5] > 100 µM | [6] > 100 µM | [7] > 100 µM | [8] > 10 µM | [9] > 100 µM | [10] > 100 µM | [11] > 100 µM | [12] > 100 µM | [13] > 100 µM | [14] > 100 µM | [15] > 100 µM | [16] > 100 µM | [17] > 100 µM | [18] > 100 µM

Cc1ccc(S(=O)(=O)Nn2c(-c3ccccc3)c(C#N)c(-c3ccc(Cl)cc3)c(C#N)c2=O)cc1
inactive: [1] 19.4 µM | [2] 15.2 µM | [19] 38.8 µM | [20] 19.5 µM | [4] 14 µM | [6] 18.5 µM | [8] 14.6 µM | [9] 26.2 µM | [13] 38 µM | [14] 22 µM | [15] 23.7 µM | [17] 32.8 µM | [18] 18.4 µM

COc1cccc(/C=N/n2c(C)n[nH]c2=O)c1
inactive: [1] > 100 µM | [3] > 100 µM | [19] > 100 µM | [4] > 100 µM | [5] > 100 µM | [6] 92.9 µM | [9] > 100 µM | [10] 25.9 µM | [11] > 100 µM | [12] > 100 µM | [14] > 100 µM | [15] > 100 µM | [16] > 100 µM | [17] > 100 µM | [18] > 100 µM

CC1CCOc2ccc(cc2)/C=N\c2ccc(cc2)-c2ccc(cc2)/N=C\c2ccc(cc2)OCC1
inactive: [1] > 100 µM | [2] > 100 µM | [19] > 100 µM | [20] > 100 µM | [4] > 100 µM | [5] > 100 µM | [6] > 100 µM | [7] > 100 µM | [8] > 100 µM | [9] > 100 µM | [10] > 100 µM | [12] > 100 µM | [13] > 100 µM | [14] > 100 µM | [15] > 100 µM | [16] > 100 µM | [17] > 100 µM | [18] > 100 µM

O=C(CNc1nccs1)Nn1cnc2ccc(S(=O)(=O)Nc3nccs3)cc2c1=O
inactive: [1] > 100 µM | [3] > 100 µM | [19] > 100 µM | [20] > 100 µM | [4] > 100 µM | [5] > 100 µM | [6] > 100 µM | [7] > 100 µM | [8] > 100 µM | [9] > 100 µM | [10] > 100 µM | [12] > 100 µM | [13] > 100 µM | [14] > 100 µM | [15] > 100 µM | [16] > 100 µM | [17] > 100 µM | [18] > 100 µM

CN(C)Cc1cc(C(=O)/C=C/c2ccc(Cl)cc2)cc(CN(C)C)c1O
inactive: [1] 14.4 µM | [2] 11.4 µM | [3] 11.7 µM | [4] 7.89 µM | [5] 4.17 µM | [6] 3.7 µM | [7] 12.5 µM | [8] 2.86 µM | [9] 10.8 µM | [10] 3.06 µM | [11] 27 µM | [12] 5.6 µM | [13] 18.4 µM | [14] 4.04 µM | [15] 18.7 µM | [16] 7.4 µM | [17] 15.6 µM

CC1CC(=O)Nc2ccc(/N=N/N(C)C)cc2N1C=O (stereo not given)
inactive: [1] > 100 µM | [2] > 100 µM | [3] > 100 µM | [19] > 100 µM | [4] > 100 µM | [5] > 100 µM | [6] > 100 µM | [7] > 100 µM | [9] > 100 µM | [10] > 100 µM | [11] > 100 µM | [12] > 100 µM | [13] > 100 µM | [14] > 100 µM | [15] > 100 µM | [16] > 100 µM | [17] > 100 µM | [18] > 100 µM

Nc1ncnc2c1ncn2C1CC(O)C(CO)O1 (stereo not given)
inactive: [1] > 100 µM | [2] > 100 µM | [3] > 100 µM | [19] > 100 µM | [20] > 100 µM | [4] > 100 µM | [5] 62.7 µM | [7] > 100 µM | [8] > 100 µM | [9] > 100 µM | [10] > 100 µM | [11] > 100 µM | [12] > 100 µM | [13] > 100 µM | [14] > 100 µM | [15] > 100 µM | [16] > 100 µM | [17] > 100 µM | [18] > 100 µM

From ChEMBL document CHEMBL1201862, “PubChem BioAssay data set” (2004)
